System: rat CIA model
Experiment: CIA model 1 (rat collagen induced arthritis, clinical score)
Type: in vivo, Dark Agouti rats
Design: key to Rat CIA Clinical Score: sum of 4 paws, each 0 = no symptoms to 4 = maximal; max 16
Settings: for activity in the CIA rat model: dosed alone
Experimental: Complete Freund's adjuvant (CFA) and Incomplete Freund's adjuvant (IFA) were purchased from Difco. Bovine collagen type II (CII), lipopolysaccharide (LPS), and Enbrel® was obtained from Chondrex (Isle d'Abeau, France); Sigma (P4252, L'Isle d'Abeau, France), Whyett (25 mg injectable syringe, France), Acros Organics (Palo Alto, Calif.), respectively. All other reagents used were of reagent grade and all solvents were of analytical grade.
Dark Agouti rats (male, 7-8 weeks old) were obtained from Harlan Laboratories (Melderslo, Netherlands). Rats were kept on a 12 hr light/dark cycle (0700-1900). Temperature was maintained at 22° C., and food and water were provided ad libitum.
One day before the experiment, CII solution (2 mg/mL) was prepared with 0.05 M acetic acid and stored at 4° C. Just before the immunization, equal volumes of adjuvant (IFA) and CII were mixed by a homogenizer in a pre-cooled glass bottle in an ice water bath. Extra adjuvant and prolonged homogenization may be required if an emulsion was not formed. 0.2 mL of the emulsion was injected intradermally at the base of the tail of each rat on day 1, a second booster intradermal injection (CII solution at 2 mg/mL in CFA 0.1 mL saline) was performed on day 9. This immunization method was modified from published methods (Sims et al, 2004; Jou et al., 2005).
The therapeutic effects of the compounds were tested in the rat CIA model. Rats were randomly divided into equal groups and each group contained 10 rats. All rats were immunized on day 1 and boosted on day 9. Therapeutic dosing lasts from day 16 to day 30. The negative control group was treated with vehicle (MC 0.5%) and the positive control group with Enbrel® (10 mg/kg, 3× week., s.c.). A compound of interest was typically tested at 3 doses, e.g. 6, 10, 60 mg/kg, q.d., p.o.
Arthritis was scored according to the method of Khachigian 2006, Lin et al 2007 and Nishida et al. 2004). The swelling of each of the four paws was ranked with the arthritic score as follows: 0—no symptoms; 1—mild, but definite redness and swelling of one type of joint such as the ankle or wrist, or apparent redness and swelling limited to individual digits, regardless of the number of affected digits; 2—moderate redness and swelling of two or more types of joints; 3—severe redness and swelling of the entire paw including digits; 4—maximally inflamed limb with involvement of multiple joints (maximum cumulative clinical arthritis score 16 per animal) (Nishida et al., 2004).
To permit the meta-analysis of multiple studies the clinical score values were normalised as follows:
AUC of clinical score (AUC score): The area under the curve (AUC) from day 1 to day 14 was calculated for each individual rat. The AUC of each animal was divided by the average AUC obtained for the vehicle in the study from which the data on that animal was obtained and multiplied by 100 (i.e. the AUC was expressed as a percentage of the average vehicle AUC per study).
Clinical score increase from day 1 to day 14 (End point score): The clinical score difference for each animal was divided by the average clinical score difference obtained for the vehicle in the study from which the data on that animal was obtained and multiplied by 100 (i.e. the difference was expressed as a percentage of the average clinical score difference for the vehicle per study).

SMILES | normalized clinical score values (calculated as AUC or as the difference from day 1 to day 14) (60 mg/kg) | Rat CIA Clinical Score (Formula I 60 mg/kg, day 18) | Rat CIA Clinical Score (Formula I 60 mg/kg, day 19) | Rat CIA Clinical Score (Formula I 60 mg/kg, day 20) | Rat CIA Clinical Score (Formula I 60 mg/kg, day 21) | Rat CIA Clinical Score (Formula I 60 mg/kg, day 24) | Rat CIA Clinical Score (Formula I 60 mg/kg, day 25) | Rat CIA Clinical Score (Formula I 60 mg/kg, day 26) | Rat CIA Clinical Score (Formula I 60 mg/kg, day 27) | Rat CIA Clinical Score (Formula I 60 mg/kg, day 28) | activity in the CIA rat model | Rat CIA Clinical Score (Formula II 6 mg/kg, day 18) | Rat CIA Clinical Score (Formula II 6 mg/kg, day 19) | Rat CIA Clinical Score (Formula II 6 mg/kg, day 20) | Rat CIA Clinical Score (Formula II 6 mg/kg, day 21) | Rat CIA Clinical Score (Formula II 6 mg/kg, day 24) | Rat CIA Clinical Score (Formula II 6 mg/kg, day 25) | Rat CIA Clinical Score (Formula II 6 mg/kg, day 26) | Rat CIA Clinical Score (Formula II 6 mg/kg, day 27) | Rat CIA Clinical Score (Formula II 6 mg/kg, day 28)
Nc1nc2cccc(-c3ccc(CN4CCS(=O)(=O)CC4)cc3)n2n1 [Formula I, 5-[4-(1,1-Dioxothiomorpholin-4-ylmethyl)-phenyl]-[1,2,4]triazolo[1,5-a]pyridin-2-ylamine] | statistically significant improvements | 2.9 | 4.4 | 5.0 | 3.9 | 4.5 | 4.3 | 3.8 | 3.7 | 3.3 | active | – | – | – | – | – | – | – | – | –
O=C(Nc1nc2cccc(-c3ccc(CN4CCS(=O)(=O)CC4)cc3)n2n1)C1CC1 [Formula II, Cyclopropanecarboxylic acid {5-[4-(1,1-dioxo-thiomorpholin-4-ylmethyl)-phenyl]-[1,2,4]triazolo[1,5-a]pyridin-2-yl}-amide] | – | – | – | – | – | – | – | – | – | – | active | 3.0 | 3.6 | 4.2 | 5.1 | 5.2 | 5.1 | 4.9 | 5.2 | 5.4
